{
  "source": "paper PMC7475246",
  "about": "“Unravelling the effect of two herbicide resistance mutations on acetolactate synthase kinetics and growth traits” (Journal of Experimental Botany, 2020)",
  "test_system": "T1, acetolactate synthase (ALS; AHAS), ALS1 and ALS2",
  "T1 construct": "native enzyme, partially purified by ammonium sulfate precipitation from young shoots (three- to four-leaf stage); mixture of ALS1 and ALS2",
  "assay": "in vitro ALS activity, colorimetric acetoin assay at […] nm",
  "assay_type": "biochemical, Alopecurus aequalis",
  "conditions": "37 °C, 60 min; pH 7.5 HEPES, MgCl2, thiamine pyrophosphate, FAD; extract buffer with 200 mM pyruvate mixed 1:1 with MM; mean of three susceptible populations; read-out: I50",
  "data": [
    {"smiles": "COC(=O)c1ccc(CNS(C)(=O)=O)cc1S(=O)(=O)NC(=O)Nc1nc(OC)cc(OC)n1", "note": "[MM, mesosulfuron-methyl]", "values": [
      {"measurement": "IC50", "value": 35.5, "unit": "nM"}
    ]}
  ]
}
